Assay results published in the supplement of paper PMC10307832.

How the values were obtained:
Test in all cases: relative viability (nuclei count vs DMSO), 5 days (fraction); higher = more cells survive
[1] = compound: CN(C)CC1=CC(=CC=C1)N=C(C2=CC=CC=C2)C3=C(NC4=C3C=CC(=C4)C(=O)N(C)C)O + C[C@@H](Oc1cc(-c2cnn(C3CCNCC3)c2)cnc1N)c1c(Cl)ccc(F)c1Cl [Crizotinib] (partner 1 µM)
In short: (§1)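 Nuclei were stained with Hoechst during a one-step fixation (final 0.05% Triton X-100, 1% formaldehyde, 1 ug/ml Hoechst) carried out 5 days after dosing, then counted on 4× images. The cells, lung cancer lines in 1536-well plates, had been dosed by pin tool the day after seeding with one drug alone or a fixed anchor-drug dose plus five library-drug doses (not always all listed) in √10 steps. Relative viability is the nuclei count in treated wells divided by that in vehicle wells, and each value is the median of duplicate plates.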

[2] = compound: CN(C)CC1=CC(=CC=C1)N=C(C2=CC=CC=C2)C3=C(NC4=C3C=CC(=C4)C(=O)N(C)C)O + O=C(CCCCCCC(=O)Nc1ccccc1)NO [Vorinostat] (partner 1 µM)
In short: as §1

[3] = compound: CN(C)CC1=CC(=CC=C1)N=C(C2=CC=CC=C2)C3=C(NC4=C3C=CC(=C4)C(=O)N(C)C)O + Cc1nc(Nc2ncc(C(=O)Nc3c(C)cccc3Cl)s2)cc(N2CCN(CCO)CC2)n1 [Dasatinib] (partner 0.075 µM)
In short: as §1

[4] = compound: CN(C)CC1=CC(=CC=C1)N=C(C2=CC=CC=C2)C3=C(NC4=C3C=CC(=C4)C(=O)N(C)C)O + CS(=O)(=O)N1CCN(Cc2cc3nc(-c4cccc5[nH]ncc45)nc(N4CCOCC4)c3s2)CC1 [Pictilisib] (partner 1 µM)
In short: as §1

LOU-NH91
relative viability ([1]; first compound 0.08 µM): 0.777 | relative viability ([1]; first compound 0.253 µM): 0.723 | relative viability ([1]; first compound 0.8 µM): 0.689 | relative viability ([1]; first compound 2.53 µM): 0.746 | relative viability ([1]; first compound 8 µM): 0.712 | relative viability ([2]; first compound 0.08 µM): 0.892 | relative viability ([2]; first compound 0.253 µM): 0.97 | relative viability ([2]; first compound 0.8 µM): 0.754 | relative viability ([2]; first compound 2.53 µM): 0.87 | relative viability ([2]; first compound 8 µM): 0.872 | relative viability ([3]; first compound 0.08 µM): 0.572 | relative viability ([3]; first compound 0.253 µM): 0.552 | relative viability ([3]; first compound 0.8 µM): 0.485 | relative viability ([3]; first compound 2.53 µM): 0.539 | relative viability ([3]; first compound 8 µM): 0.503 | relative viability ([4]; first compound 0.08 µM): 0.532 | relative viability ([4]; first compound 0.253 µM): 0.512 | relative viability ([4]; first compound 0.8 µM): 0.481 | relative viability ([4]; first compound 2.53 µM): 0.511 | relative viability ([4]; first compound 8 µM): 0.512

LU99A
relative viability ([1]; first compound 0.08 µM): 0.565 | relative viability ([1]; first compound 0.253 µM): 0.551 | relative viability ([1]; first compound 0.8 µM): 0.61 | relative viability ([1]; first compound 2.53 µM): 0.513 | relative viability ([1]; first compound 8 µM): 0.411 | relative viability ([2]; first compound 0.08 µM): 0.517 | relative viability ([2]; first compound 0.253 µM): 0.515 | relative viability ([2]; first compound 0.8 µM): 0.495 | relative viability ([2]; first compound 2.53 µM): 0.416 | relative viability ([2]; first compound 8 µM): 0.469 | relative viability ([3]; first compound 0.08 µM): 0.578 | relative viability ([3]; first compound 0.253 µM): 0.646 | relative viability ([3]; first compound 0.8 µM): 0.611 | relative viability ([3]; first compound 2.53 µM): 0.401 | relative viability ([3]; first compound 8 µM): 0.373 | relative viability ([4]; first compound 0.08 µM): 0.322 | relative viability ([4]; first compound 0.253 µM): 0.33 | relative viability ([4]; first compound 0.8 µM): 0.366 | relative viability ([4]; first compound 2.53 µM): 0.301 | relative viability ([4]; first compound 8 µM): 0.305

LXF-289
relative viability ([1]; first compound 0.08 µM): 0.871 | relative viability ([1]; first compound 0.253 µM): 0.762 | relative viability ([1]; first compound 0.8 µM): 0.758 | relative viability ([1]; first compound 2.53 µM): 0.773 | relative viability ([1]; first compound 8 µM): 0.757 | relative viability ([2]; first compound 0.08 µM): 0.778 | relative viability ([2]; first compound 0.253 µM): 0.745 | relative viability ([2]; first compound 0.8 µM): 0.756 | relative viability ([2]; first compound 2.53 µM): 0.72 | relative viability ([2]; first compound 8 µM): 0.727 | relative viability ([3]; first compound 0.08 µM): 0.203 | relative viability ([3]; first compound 0.253 µM): 0.216 | relative viability ([3]; first compound 0.8 µM): 0.246 | relative viability ([3]; first compound 2.53 µM): 0.242 | relative viability ([3]; first compound 8 µM): 0.205 | relative viability ([4]; first compound 0.08 µM): 0.778 | relative viability ([4]; first compound 0.253 µM): 0.793 | relative viability ([4]; first compound 0.8 µM): 0.794 | relative viability ([4]; first compound 2.53 µM): 0.706 | relative viability ([4]; first compound 8 µM): 0.731

NCI-H522
relative viability ([2]; first compound 0.08 µM): 0.986 | relative viability ([2]; first compound 0.253 µM): 0.984 | relative viability ([2]; first compound 0.8 µM): 0.89 | relative viability ([2]; first compound 2.53 µM): 0.977 | relative viability ([2]; first compound 8 µM): 0.843 | relative viability ([3]; first compound 0.08 µM): 0.938 | relative viability ([3]; first compound 0.253 µM): 0.97 | relative viability ([3]; first compound 0.8 µM): 0.788 | relative viability ([3]; first compound 2.53 µM): 0.837 | relative viability ([3]; first compound 8 µM): 0.982

NCI-H1299
relative viability ([1]; first compound 0.08 µM): 0.92 | relative viability ([1]; first compound 0.253 µM): 0.93 | relative viability ([1]; first compound 0.8 µM): 0.988 | relative viability ([1]; first compound 2.53 µM): 0.834 | relative viability ([1]; first compound 8 µM): 0.939 | relative viability ([4]; first compound 0.08 µM): 0.509 | relative viability ([4]; first compound 0.253 µM): 0.854 | relative viability ([4]; first compound 0.8 µM): 0.849 | relative viability ([4]; first compound 2.53 µM): 0.6 | relative viability ([4]; first compound 8 µM): 0.355

NCI-H1395
relative viability ([2]; first compound 0.08 µM): 0.705 | relative viability ([2]; first compound 0.253 µM): 0.845 | relative viability ([2]; first compound 0.8 µM): 0.886 | relative viability ([2]; first compound 2.53 µM): 0.589 | relative viability ([2]; first compound 8 µM): 0.701 | relative viability ([3]; first compound 0.08 µM): 0.402 | relative viability ([3]; first compound 0.253 µM): 0.373 | relative viability ([3]; first compound 0.8 µM): 0.455 | relative viability ([3]; first compound 2.53 µM): 0.433 | relative viability ([3]; first compound 8 µM): 0.399 | relative viability ([4]; first compound 0.08 µM): 0.649 | relative viability ([4]; first compound 0.253 µM): 0.619 | relative viability ([4]; first compound 0.8 µM): 0.651 | relative viability ([4]; first compound 2.53 µM): 0.489 | relative viability ([4]; first compound 8 µM): 0.579

NCI-H1563
relative viability ([1]; first compound 0.08 µM): 0.872 | relative viability ([1]; first compound 0.253 µM): 0.871 | relative viability ([1]; first compound 0.8 µM): 0.833 | relative viability ([1]; first compound 2.53 µM): 0.846 | relative viability ([1]; first compound 8 µM): 0.771 | relative viability ([3]; first compound 0.08 µM): 0.437 | relative viability ([3]; first compound 0.253 µM): 0.489 | relative viability ([3]; first compound 0.8 µM): 0.579 | relative viability ([3]; first compound 2.53 µM): 0.389 | relative viability ([3]; first compound 8 µM): 0.411 | relative viability ([4]; first compound 0.08 µM): 0.72 | relative viability ([4]; first compound 0.253 µM): 0.637 | relative viability ([4]; first compound 0.8 µM): 0.613 | relative viability ([4]; first compound 2.53 µM): 0.638 | relative viability ([4]; first compound 8 µM): 0.617

NCI-H1648
relative viability ([2]; first compound 0.08 µM): 0.518 | relative viability ([2]; first compound 0.253 µM): 0.585 | relative viability ([2]; first compound 2.53 µM): 0.512 | relative viability ([2]; first compound 8 µM): 0.446

NCI-H1703
relative viability ([1]; first compound 0.08 µM): 0.65 | relative viability ([1]; first compound 0.253 µM): 0.591 | relative viability ([1]; first compound 0.8 µM): 0.715 | relative viability ([1]; first compound 2.53 µM): 0.341 | relative viability ([1]; first compound 8 µM): 0.138 | relative viability ([4]; first compound 0.08 µM): 0.377 | relative viability ([4]; first compound 0.8 µM): 0.26 | relative viability ([4]; first compound 2.53 µM): 0.215 | relative viability ([4]; first compound 8 µM): 0.223

NCI-H1792
relative viability ([1]; first compound 0.08 µM): 0.68 | relative viability ([1]; first compound 0.253 µM): 0.97 | relative viability ([1]; first compound 0.8 µM): 0.954 | relative viability ([1]; first compound 2.53 µM): 0.786 | relative viability ([1]; first compound 8 µM): 0.915 | relative viability ([3]; first compound 0.08 µM): 0.903 | relative viability ([3]; first compound 0.253 µM): 0.856 | relative viability ([3]; first compound 0.8 µM): 0.851 | relative viability ([3]; first compound 2.53 µM): 0.646 | relative viability ([3]; first compound 8 µM): 0.598 | relative viability ([4]; first compound 0.08 µM): 0.303 | relative viability ([4]; first compound 0.253 µM): 0.248 | relative viability ([4]; first compound 0.8 µM): 0.27 | relative viability ([4]; first compound 2.53 µM): 0.207 | relative viability ([4]; first compound 8 µM): 0.18

NCI-H1793
relative viability ([2]; first compound 0.08 µM): 0.826 | relative viability ([2]; first compound 0.253 µM): 0.812 | relative viability ([2]; first compound 0.8 µM): 0.563 | relative viability ([2]; first compound 2.53 µM): 0.821 | relative viability ([2]; first compound 8 µM): 0.859 | relative viability ([3]; first compound 0.08 µM): 0.438 | relative viability ([3]; first compound 0.253 µM): 0.387 | relative viability ([3]; first compound 2.53 µM): 0.425 | relative viability ([3]; first compound 8 µM): 0.411 | relative viability ([4]; first compound 0.08 µM): 0.355 | relative viability ([4]; first compound 0.253 µM): 0.266 | relative viability ([4]; first compound 0.8 µM): 0.32 | relative viability ([4]; first compound 2.53 µM): 0.35 | relative viability ([4]; first compound 8 µM): 0.345

NCI-H2342
relative viability ([2]; first compound 0.08 µM): 0.728 | relative viability ([2]; first compound 0.253 µM): 0.928 | relative viability ([2]; first compound 0.8 µM): 0.773 | relative viability ([2]; first compound 2.53 µM): 0.87 | relative viability ([2]; first compound 8 µM): 0.913 | relative viability ([3]; first compound 0.08 µM): 0.281 | relative viability ([3]; first compound 0.253 µM): 0.399 | relative viability ([3]; first compound 0.8 µM): 0.287 | relative viability ([3]; first compound 2.53 µM): 0.329 | relative viability ([3]; first compound 8 µM): 0.338
